Assay results from PubChem BioAssay AID1963825 (Molecular Pharmacology Branch, DTP, NCI, 2024).

Assay: Anticancer human tumor 997537-175-T-J1-PDC patient-derived colon adenocarcinoma cell line growth inhibition [POLQ]
Settings: 997537-175-T-J1-PDC complex spheroid viability, combination with POLQ inhibitors; for IC50: curve of first compound; for viability, T/C: stronger effect = lower value
Outline: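 PDC + HUVEC + MSC complex spheroids; POLQ inhibitors ± partner drugs; top conc. at/near clinical Cmax, else 10 microM (SN-38 1 microM), half-log dilutions; 37 degrees C, 5% CO2.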

[1] = second compound 0.0316 µM, first compound 0.0316 µM
[2] = second compound 0.0316 µM, first compound 0.1 µM
[3] = second compound 0.1 µM, first compound 0.0316 µM
[4] = second compound 0.1 µM, first compound 0.1 µM
[5] = second compound 0.316 µM, first compound 0.0316 µM
[6] = second compound 0.316 µM, first compound 0.1 µM
[7] = second compound 1 µM, first compound 0.0316 µM
[8] = second compound 1 µM, first compound 0.1 µM
[9] = second compound 3.16 µM, first compound 0.0316 µM
[10] = second compound 3.16 µM, first compound 0.1 µM
[11] = second compound 10 µM, first compound 0.0316 µM
[12] = second compound 10 µM, first compound 0.1 µM
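Also: luminescence signal used as a surrogate for viable cells; spheroids exposed to drugs for seven days before readout.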

CC[C@@]1(O)C(=O)OCc2c1cc1n(c2=O)Cc2cc3c(CN(C)C)c(O)ccc3nc2-1 + Nc1ccc(C#CCN(C(=O)Cc2ncc(C(F)(F)F)cc2C(F)(F)F)c2ccc(F)cc2)nn1
IC50 (second compound 0.0316 µM): > 0.1 µM | IC50 (second compound 0.1 µM): > 0.1 µM | IC50 (second compound 0.316 µM): 0.0908 µM | IC50 (second compound 1 µM): > 0.1 µM | IC50 (second compound 3.16 µM): > 0.1 µM | IC50 (second compound 10 µM): > 0.1 µM | viability, T/C (second compound 0.0316 µM, first compound 0.000316 µM): 104% | viability, T/C (second compound 0.0316 µM, first compound 0.001 µM): 94.6% | viability, T/C (second compound 0.0316 µM, first compound 0.00316 µM): 104% | viability, T/C (second compound 0.0316 µM, first compound 0.01 µM): 111% | viability, T/C [1]: 94.7% | viability, T/C [2]: 66.3% | viability, T/C (second compound 0.1 µM, first compound 0.000316 µM): 101% | viability, T/C (second compound 0.1 µM, first compound 0.001 µM): 91% | viability, T/C (second compound 0.1 µM, first compound 0.00316 µM): 101% | viability, T/C (second compound 0.1 µM, first compound 0.01 µM): 103% | viability, T/C [3]: 83.2% | viability, T/C [4]: 58.3% | viability, T/C (second compound 0.316 µM, first compound 0.000316 µM): 104% | viability, T/C (second compound 0.316 µM, first compound 0.001 µM): 90.9% | viability, T/C (second compound 0.316 µM, first compound 0.00316 µM): 107% | viability, T/C (second compound 0.316 µM, first compound 0.01 µM): 101% | viability, T/C [5]: 77.3% | viability, T/C [6]: 47.5% | viability, T/C (second compound 1 µM, first compound 0.000316 µM): 93.3% | viability, T/C (second compound 1 µM, first compound 0.001 µM): 89.8% | viability, T/C (second compound 1 µM, first compound 0.00316 µM): 102% | viability, T/C (second compound 1 µM, first compound 0.01 µM): 101% | viability, T/C [7]: 83.9% | viability, T/C [8]: 57.2% | viability, T/C (second compound 3.16 µM, first compound 0.000316 µM): 95.7% | viability, T/C (second compound 3.16 µM, first compound 0.001 µM): 98.2% | viability, T/C (second compound 3.16 µM, first compound 0.00316 µM): 107% | viability, T/C (second compound 3.16 µM, first compound 0.01 µM): 100% | viability, T/C [9]: 79% | viability, T/C [10]: 60.6% | viability, T/C (second compound 10 µM, first compound 0.000316 µM): 96.7% | viability, T/C (second compound 10 µM, first compound 0.001 µM): 99.4% | viability, T/C (second compound 10 µM, first compound 0.00316 µM): 116% | viability, T/C (second compound 10 µM, first compound 0.01 µM): 107% | viability, T/C [11]: 81.3% | viability, T/C [12]: 58.5%

COc1cc(C2c3cc4c(cc3C(OC3OC5COC(C)OC5C(O)C3O)C3COC(=O)C23)OCO4)cc(OC)c1O (centres undefined) + Nc1ccc(C#CCN(C(=O)Cc2ncc(C(F)(F)F)cc2C(F)(F)F)c2ccc(F)cc2)nn1
IC50 (second compound 0.0316 µM): > 10 µM | IC50 (second compound 0.1 µM): > 10 µM | IC50 (second compound 0.316 µM): > 10 µM | IC50 (second compound 1 µM): > 10 µM | IC50 (second compound 3.16 µM): > 10 µM | IC50 (second compound 10 µM): 7.77 µM | viability, T/C [1]: 101% | viability, T/C [2]: 105% | viability, T/C (second compound 0.0316 µM, first compound 0.316 µM): 93.2% | viability, T/C (second compound 0.0316 µM, first compound 1 µM): 94.2% | viability, T/C (second compound 0.0316 µM, first compound 3.16 µM): 68% | viability, T/C (second compound 0.0316 µM, first compound 10 µM): 67.7% | viability, T/C [3]: 112% | viability, T/C [4]: 96.4% | viability, T/C (second compound 0.1 µM, first compound 0.316 µM): 99.5% | viability, T/C (second compound 0.1 µM, first compound 1 µM): 86% | viability, T/C (second compound 0.1 µM, first compound 3.16 µM): 65.7% | viability, T/C (second compound 0.1 µM, first compound 10 µM): 66.2% | viability, T/C [5]: 92.4% | viability, T/C [6]: 99.5% | viability, T/C (second compound 0.316 µM, first compound 0.316 µM): 86.5% | viability, T/C (second compound 0.316 µM, first compound 1 µM): 83.4% | viability, T/C (second compound 0.316 µM, first compound 3.16 µM): 75.4% | viability, T/C (second compound 0.316 µM, first compound 10 µM): 69.7% | viability, T/C [7]: 92.4% | viability, T/C [8]: 96.9% | viability, T/C (second compound 1 µM, first compound 0.316 µM): 97.1% | viability, T/C (second compound 1 µM, first compound 1 µM): 81% | viability, T/C (second compound 1 µM, first compound 3.16 µM): 61% | viability, T/C (second compound 1 µM, first compound 10 µM): 67.7% | viability, T/C [9]: 91.1% | viability, T/C [10]: 93.7% | viability, T/C (second compound 3.16 µM, first compound 0.316 µM): 94.6% | viability, T/C (second compound 3.16 µM, first compound 1 µM): 82.4% | viability, T/C (second compound 3.16 µM, first compound 3.16 µM): 57.8% | viability, T/C (second compound 3.16 µM, first compound 10 µM): 54.3% | viability, T/C [11]: 96% | viability, T/C [12]: 104% | viability, T/C (second compound 10 µM, first compound 0.316 µM): 99.5% | viability, T/C (second compound 10 µM, first compound 1 µM): 91% | viability, T/C (second compound 10 µM, first compound 3.16 µM): 61.4% | viability, T/C (second compound 10 µM, first compound 10 µM): 46.8%
